Where two headings read alike, the source gives them in different places.
Legend:
[1] = test system: HIV-1 RT mutations D549N and H539N; details: cited from earlier work
[2] = test system: Wild-type HIVLAI; assay: Drug susceptibility assay in P4/R5 cells, recombinant virus; type: cell-based, HIV-1
Method: (§1) Drug susceptibility assays. NRTI susceptibility was determined in P4/R5 cells as described previously (Parikh, U. M., et al. 2005. Antimicrob. Agents Chemother. 49:1139-44). Briefly, threefold dilutions of inhibitor were added to P4/R5 cells in triplicate and cells were infected with an amount of virus that produced 100 relative units of light (RLU) in no drug, virus control wells. After 48 hours, the cells were lysed (Gal-Screen; Tropix/Applied Biosystems, Foster City, Calif.) and the RLU was measured using a ThermoLabSystems luminometer (Waltham, Mass.). The IC50 and fold-resistance were calculated as described above. IC50 values from at least three independent experiments were log10 transformed and compared for statistically significant differences using the two-sample Student's t test.
(§2) Construction of mutant recombinant HIV-1. Mutant recombinant plasmid clones of virus were generated by oligonucleotide site-directed mutagenesis as described previously (Shi, C., and J. W. Mellors. 1997. A recombinant retroviral system for rapid […] analysis of human immunodeficiency virus type 1 susceptibility to reverse transcriptase inhibitors. Antimicrob. Agents Chemother. 41:2781-5), using the p6HRT-MO plasmid. p6HRT-MO contains the entire RT and protease coding sequence as previously described (Le Grice, S. F., and F. Gruninger-Leitch. 1990. Rapid purification of homodimer and heterodimer HIV-1 reverse transcriptase by metal chelate affinity chromatography. Eur. J. Biochem. 187:307-14) and four silent restriction sites (Xma I, Mlu I, Xba I, and NgoM IV from the 5′ to 3′ end of RT at codons 14, 358, 490 and 554, respectively). After site-directed mutagenesis (QIAamp kit, QIAGEN, Valencia, Calif.), the mutated RT was ligated into pxxHIV-1LAI MO that contains the entire genome of HIV-1LAI and the same silent restriction sites as p6HRT-MO. Infectious virus was generated by electroporating the mutated xxHIV-1LAI MO plasmid into MT-2 cells as described above. All mutations in recombinant viruses were confirmed by full-length sequencing of the entire RT coding region.

[3] = test system: HIV-1 RT D549N; details: D549N mutation; cited from earlier work
[4] = test system: HIVLAI RT D67N/K70R; assay: Drug susceptibility assay in P4/R5 cells, site-directed mutant; type: cell-based, HIV-1; details: for Fold-Resistance: D67N/K70R compared to wild-type; for IC50: D67N/K70R, mean ± SD
Method: as §1, §2

[5] = test system: HIVLAI RT D67N/K70R/T215F; assay: as above; type: cell-based, HIV-1; details: for Fold-Resistance: D67N/K70R/T215F compared to wild-type; for IC50: D67N/K70R/T215F, mean ± SD
Method: as §1, §2

[6] = test system: HIVLAI RT D67N/K70R/A371V/Q509L; assay: as above; type: cell-based, HIV-1; details: for Fold-Resistance: D67N/K70R/A371V/Q509L compared to wild-type; for IC50: D67N/K70R/A371V/Q509L, mean ± SD
Method: as §1, §2

[7] = test system: HIVLAI RT D67N/K70R/T215F/A371V/Q509L; assay: as above; type: cell-based, HIV-1; details: for Fold-Resistance: D67N/K70R/T215F/A371V/Q509L compared to wild-type; for IC50: D67N/K70R/T215F/A371V/Q509L, mean ± SD; for cross-resistance compared with viruses without A371V/Q509L: HIV-1 containing D67N/K70R/T215F/A371V/Q509L
Method: as §1, §2

[8] = test system: HIV-1 RT H539N; details: H539N mutation; cited from earlier work
[9] = test system: HIV-1 RT D549N with TAMs D67N, K70R, T215Y and K219Q; details: D549N present with TAMs D67N; cited from earlier work
[10] = test system: HIV-1 RT mutants with A371V and/or Q509L, alone or in combination with TAMs; assay: Drug susceptibility of site-directed mutants, comparisons between mutants with and without A371V/Q509L; type: cell-based; details: D67N/K70R/A371V/Q509L and D67N/K70R/T215F/A371V/Q509L
[11] = Human immunodeficiency virus 1, P4/R5

SMILES | effect of the mutations on susceptibility [1] | IC50 [2, 11] [µM] | increase in resistance (reduced susceptibility) [3] | Fold-Resistance [4] [fold] | IC50 [4, 11] [µM] | Fold-Resistance [5] [fold] | IC50 [5, 11] [µM] | Fold-Resistance [6] [fold] | IC50 [6, 11] [µM] | Fold-Resistance [7] [fold] | IC50 [7, 11] [µM] | increase in resistance (reduced susceptibility) [8] [fold] | increase in resistance [9] [fold] | IC50 ([2]; Wild-type HIVLAI RT, mean ± SD, at least 3 independent experiments, read-out: IC50) [µM] | IC50 [4] [µM] | IC50 [5] [µM] | IC50 [6] [µM] | IC50 [7] [µM] | cross-resistance compared with viruses without A371V/Q509L [7] | cross-resistance of viruses with A371V and Q509L in combination with TAMs compared with those with only TAMs [10]
O=C1Nc2ccc(Cl)cc2[C@@](C#CC2CC2)(C(F)(F)F)O1 [efavirenz] | no effect |  |  |  |  |  |  |  |  |  |  |  |  |  |  |  |  |  |  | 
Cc1cn([C@H]2C=C[C@@H](CO)O2)c(=O)[nH]c1=O [stavudine] |  | 7.2 ± 0.6 | 2,4 fold | 1.4 | 10 ± 3.1 | 2.4 | 17 ± 4.6 | 1.3 | 9.6 ± 2.9 | 2.0 | 14 ± 4.4 | 10 | 12.5 |  |  |  |  |  |  | 
Nc1ccn([C@@H]2CS[C@H](CO)O2)c(=O)n1 [lamivudine] |  | 0.5 ± 0.1 |  | 1.9 | 1 ± 0.3 | 7.0 | 3.8 ± 0.59 | 5.2 | 2.7 ± 1.4 | 15 | 7.5 ± 1.8 |  |  |  |  |  |  |  |  | 
O=c1[nH]cnc2c1ncn2[C@H]1CC[C@@H](CO)O1 [didanosine] | no effect | 4.2 ± 0.9 |  | 1.2 | 5 ± 0.9 | 1.6 | 6.8 ± 0.3 | 1.2 | 4.9 ± 0.9 | 1.6 | 6.6 ± 0.4 |  |  |  |  |  |  |  |  | 
C[C@H](Cn1cnc2c(N)ncnc21)OCP(=O)(O)O [tenofovir] |  |  |  | 1.5 |  | 1.5 |  | 2.2 |  | 2.7 |  |  |  | 3.3 ± 0.9 | 4.9 ± 1.5 | 4.9 ± 0.7 | 7.3 ± 1.3 | 9 ± 3.5 | greater cross-resistance | trend toward decreased susceptibility
Nc1nc(NC2CC2)c2ncn([C@H]3C=C[C@@H](CO)C3)c2n1 [abacavir] |  | 6.4 ± 0.5 |  | 1.2 | 7.9 ± 0.4 | 2.4 | 15 ± 1.5 | 2.0 | 13 ± 2.5 | 3.0 | 19 ± 4.5 |  |  |  |  |  |  |  | greater cross-resistance | Statistically significant increases in cross-resistance
